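Briefly, cells in 96-well plates were exposed to five compound concentrations for 48 h, and endpoints were estimated by linear interpolation. TGI marks complete inhibition of growth.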

Some test systems named below: ACHN renal; HCC-2998 colon; HCT-15 colon; K-562 leukemia; M14 melanoma; NCI-H460 lung; OVCAR-8 ovarian; SK-OV-3 ovarian; SNB-75 CNS; SW-620 colon; TK-10 renal; U251 CNS; UACC-257 melanoma; UO-31 renal; COLO 205 colon; RPMI-8226 leukemia; MCF7 breast.
Common to all, as to test: growth of human tumour cells (NCI), 48 h

For the compound `N=C1C(=N)c2ccccc2-c2ccccc21.[Cl-].[Ru+2].c1cnc2c(c1)ccc1cccnc12.c1cnc2c(c1)ccc1cccnc12`, the TGI in the experiment on ACHN renal was 76.6 µM; in the experiment on HCC-2998 colon, above 100 µM; in the experiment with HCT-15 colon, above 100 µM; in the experiment on K-562 leukemia, 78.9 µM; in the experiment on M14 melanoma it was 43.3 µM; in the experiment with NCI-H460 lung, above 100 µM. In addition, the TGI with OVCAR-8 ovarian is 95.6 µM; with SK-OV-3 ovarian, above 100 µM; with SNB-75 CNS, above 100 µM; in the experiment with SW-620 colon, 41.4 µM; in the experiment with TK-10 renal, above 100 µM; in the experiment on U251 CNS, 73.9 µM. The TGI in the experiment with UACC-257 melanoma was 46.6 µM; with UO-31 renal, above 100 µM.
Consider `CCN(CC)C(=O)c1cc(OC(C)C)ccc1-c1c(C)cc(OC(C)C)c(OC)c1OC`, for which the TGI with ACHN renal, in the experiment with COLO 205 colon, in the experiment on HCC-2998 colon, in the experiment with HCT-15 colon, in the experiment with K-562 leukemia and in the experiment with M14 melanoma was above 100 µM each time. Further, the TGI in the experiment on NCI-H460 lung, in the experiment with OVCAR-8 ovarian, in the experiment on RPMI-8226 leukemia, in the experiment with SK-OV-3 ovarian, in the experiment with SW-620 colon and in the experiment with TK-10 renal was above 100 µM in each case. The TGI with U251 CNS and in the experiment with UO-31 renal was above 100 µM each time.
With `CC(C)=CCc1c(O)cc(O)c2c1OC(c1ccc(O)cc1)C(O)C2=O` (stereo unspecified), the TGI was 82.9 µM with ACHN renal; above 100 µM in the experiment with COLO 205 colon; 56.3 µM with HCC-2998 colon; 55.7 µM with HCT-15 colon; above 100 µM in the experiment with K-562 leukemia; 57.3 µM with M14 melanoma. Also, the TGI was 77.3 µM in the experiment with NCI-H460 lung; above 100 µM in the experiment with OVCAR-8 ovarian; above 100 µM in the experiment with SK-OV-3 ovarian; 99 µM with SNB-75 CNS; above 100 µM with SW-620 colon; 60.6 µM with TK-10 renal. Also, the figures for the TGI in the experiment on U251 CNS, in the experiment with UACC-257 melanoma and with UO-31 renal were 74.5 µM, above 100 µM and 90.4 µM, respectively.
With `CC(=O)OCC(OC(C)=O)C1C[C@H]2O[C@@H]3[C@H](C[C@H]2O1)O[C@@]1(C[C@@H]3C)C[C@H](C)[C@@H]2O[C@]3(C[C@@H]2O1)C[C@H]1O[C@H]2[C@H](C)[C@H]4OC(=O)C[C@H]5CC[C@@H]6OC7[C@H]8O[C@]9(CC[C@H]%10CC(=O)[C@H](CC[C@H]%11C[C@@H](C)C(=O)C(C[C@@H]4O[C@H]2C[C@H]1O3)O%11)O%10)CC8O[C@@H]7[C@@H](O9)[C@H]6O5` (stereo partly specified), the TGI with ACHN renal was above 1 µM; in the experiment with COLO 205 colon, 0.0749 µM; in the experiment with HCT-15 colon, above 0.219 µM; in the experiment with K-562 leukemia it was above 1 µM; in the experiment with M14 melanoma it was above 1 µM; with MCF7 breast, above 1 µM. For the same compound, the TGI was above 1 µM in the experiment with NCI-H460 lung; above 0.258 µM with OVCAR-8 ovarian; above 0.22 µM in the experiment on SK-OV-3 ovarian; above 1 µM with SNB-75 CNS; above 1 µM with SW-620 colon; above 1 µM with TK-10 renal. Besides, the TGI in the experiment on U251 CNS and in the experiment with UO-31 renal was above 1 µM each time.
For the compound `C1=C(CC2=C[P+](c3ccccc3)(c3ccccc3)C=C(c3ccccc3)O2)OC(c2ccccc2)=C[P+]1(c1ccccc1)c1ccccc1`, the TGI in the experiment with ACHN renal came to 1.98 µM; in the experiment on COLO 205 colon it was 0.301 µM; in the experiment on HCT-15 colon, 3.22 µM; with M14 melanoma, 1.8 µM; in the experiment on NCI-H460 lung, 2.03 µM; in the experiment on OVCAR-8 ovarian, 0.69 µM. The TGI in the experiment on RPMI-8226 leukemia is 0.558 µM; in the experiment on SK-OV-3 ovarian, 1.41 µM; with SNB-75 CNS it was 0.881 µM; in the experiment with SW-620 colon, 1.42 µM; in the experiment on TK-10 renal, 1.67 µM; with U251 CNS it was 1.23 µM. For the same compound, the TGI in the experiment with UACC-257 melanoma stood at 1.33 µM; with UO-31 renal, 2.94 µM.
Take `O=C1C2=Cc3ccccc3CCN2c2ccccc21`: the TGI is above 31.6 µM with ACHN renal; above 56 µM in the experiment with COLO 205 colon; above 79.5 µM with HCT-15 colon; 20.5 µM in the experiment on K-562 leukemia; 26.8 µM with M14 melanoma; above 61 µM in the experiment on MCF7 breast. In addition, the TGI in the experiment with NCI-H460 lung was 60.2 µM; in the experiment with OVCAR-8 ovarian, above 100 µM; in the experiment with RPMI-8226 leukemia it was 23.3 µM; in the experiment on SNB-75 CNS, above 100 µM; in the experiment on SW-620 colon it was above 31.6 µM; in the experiment on TK-10 renal, above 100 µM. For the same compound, the TGI was above 31.6 µM in the experiment with U251 CNS, above 79.9 µM in the experiment with UACC-257 melanoma and above 100 µM with UO-31 renal.
Regarding `CCC1CN2CCc3cc(OC)c(OC)cc3C2CC1CC1c2cc(OC)c(OC)cc2CCN1C(=O)C(N)Cc1ccccc1` (stereo unspecified), the TGI with ACHN renal was found to be 11.8 µM; in the experiment on HCC-2998 colon, 5.66 µM; in the experiment on HCT-15 colon it was 10.9 µM; in the experiment with K-562 leukemia it was 1.93 µM; in the experiment with M14 melanoma, 2.19 µM; in the experiment with NCI-H460 lung, 9.23 µM. In addition, the TGI in the experiment on OVCAR-8 ovarian stood at 11.1 µM; with RPMI-8226 leukemia it was 6.07 µM; with SK-OV-3 ovarian, 17.8 µM; with SNB-75 CNS, 10.6 µM; with SW-620 colon it was 10.9 µM; with TK-10 renal, 8.53 µM. Moreover, the TGI with U251 CNS is 5.97 µM; in the experiment on UACC-257 melanoma, 11.6 µM; with UO-31 renal it was 5.85 µM.

The values are drawn from PubChem BioAssay (NCI).
